Laboratory results published in ChEMBL document CHEMBL5725824, “Aminochromane, aminothiochromane and amino-1,2,3,4-tetrahydroquinoline derivatives, pharmaceutical compositions containing them, and their use in therapy” (2017).

Molecular target: Sodium- and chloride-dependent glycine transporter 1 (Homo sapiens) (UniProt P48067)
Test: Radioligand Binding Assay: 1. [3H]-Glycine uptake into recombinant CHO cells expressing human GlyT1: Human GlyT1c expressing recombinant hGlyT1c_5_CHO cells were plated at 20,000 cells per well in 96 well Cytostar-T scintillation microplates (Amersham Biosciences) and cultured to sub-confluency for 24 h. For glycine uptake assays the culture medium was aspirated and the cells were washed once …

Sodium- and chloride-dependent glycine transporter 1 (Homo sapiens), sequence (P48067 whole entry, looked up): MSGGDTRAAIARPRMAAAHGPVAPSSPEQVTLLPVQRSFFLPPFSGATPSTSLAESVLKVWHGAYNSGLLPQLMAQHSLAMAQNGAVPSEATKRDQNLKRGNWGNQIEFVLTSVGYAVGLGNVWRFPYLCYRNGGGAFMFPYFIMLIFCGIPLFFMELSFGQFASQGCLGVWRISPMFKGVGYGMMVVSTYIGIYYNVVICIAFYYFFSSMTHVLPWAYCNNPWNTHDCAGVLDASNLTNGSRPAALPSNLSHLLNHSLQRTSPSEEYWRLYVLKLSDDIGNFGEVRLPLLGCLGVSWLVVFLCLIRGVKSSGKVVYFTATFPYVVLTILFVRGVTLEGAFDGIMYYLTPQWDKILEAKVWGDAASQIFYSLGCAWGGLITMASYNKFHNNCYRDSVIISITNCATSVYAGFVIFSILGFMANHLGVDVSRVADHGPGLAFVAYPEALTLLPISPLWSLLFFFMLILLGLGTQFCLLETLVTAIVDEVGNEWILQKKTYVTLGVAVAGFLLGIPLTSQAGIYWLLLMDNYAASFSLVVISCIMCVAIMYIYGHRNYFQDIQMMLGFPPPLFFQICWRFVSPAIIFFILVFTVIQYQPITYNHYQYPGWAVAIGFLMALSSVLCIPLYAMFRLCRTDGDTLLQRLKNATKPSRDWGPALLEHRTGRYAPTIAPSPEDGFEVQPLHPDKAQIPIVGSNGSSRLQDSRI

CNC1COc2ccc(N3CC(NS(=O)(=O)CC4CC4)C3)cc2C1Cc1ccccc1 (cis isomer)
Ki: < 10 nM
